IC50 data for 3 compounds are collected here from patent publication US20150025120A1, “PYRAZOLE-ALCOHOL COMPOUNDS AND PHARMACEUTICAL USE THEREOF” (JAPAN TOBACCO INC., priority 2013, published 2015).

This test addresses T1, human PDHK2 (hPDHK2) (Homo sapiens, UniProt Q15119).
T1 construct: made in house; host or cells: Escherichia coli BL21(DE3), pET17b
The experiment in a line: Inhibitory action of PDHK2 activity in vitro (residual PDH activity after kinase reaction). Format: biochemical. As for the experimental part: The inhibitory action of PDHK activity was assessed indirectly by measuring the residual PDH activity after kinase reaction in the presence of a test compound.
In the case of human PDHK2 (hPDHK2, Genbank Accession No. BC040478.1), modified hPDHK2 cDNA wherein FLAG-Tag sequence was added to the N terminus of hPDHK2 cDNA clone (pReceiver-M01/PDK2-GeneCopoeia) was prepared by PCR and cloned into a vector (pET17b-Novagen). The recombinant construct was transformed into Escherichia coli (DH5α-TOYOBO). The recombinant clones were identified, and plasmid DNA was isolated and subjected to the DNA sequence analysis. One clone which had the expected nucleic acid sequence was selected for expression work.
For expression of hPDHK2 activity, Escherichia coli strain BL21(DE3) cells (Novagen) were transformed with the pET17b vector containing modified hPDHK2 cDNA. The Escherichia coli were grown to an optical density 0.6 ([…]) at 30° C. Protein expression was induced by the addition of 500 μmol/L isopropyl-β-thiogalactopyranoside. The Escherichia coli were cultured at 30° C. for 5 hr and harvested by centrifugation. Resuspension of the Escherichia coli paste was disrupted by a microfluidizer. FLAG-Tagged protein was purified using FLAG affinity gel. The gel was washed with 20 mmol/L HEPES-NaOH, 500 mmol/L sodium chloride, 1% ethylene glycol, and 0.1% Pluronic F-68 (pH 8.0), and the binding protein was eluted with 20 mmol/L HEPES-NaOH, 100 μg/mL FLAG peptide, 500 mmol/L sodium chloride, 1% ethylene glycol, and 0.1% Pluronic F-68 (pH 8.0). The eluted fractions containing FLAG-Tagged protein were pooled, dialyzed against 20 mmol/L HEPES-NaOH, 150 mmol/L sodium chloride, 0.5 mmol/L EDTA, 1% ethylene glycol, and 0.1% Pluronic F-68 (pH 8.0), and preserved at −80° C.
0.05 U/mL PDH and 0.8 μg/mL hPDHK2 were mixed in a buffer (50 mmol/L 3-morpholinopropanesulfonic acid (pH 7.0), 20 mmol/L dipotassium hydrogen phosphate, 60 mmol/L potassium chloride, 2 mmol/L magnesium chloride, 0.4 mmol/L EDTA, and 0.2% Pluronic F-68, 2 mmol/L dithiothreitol), and the mixture was incubated at 4° C. overnight to obtain a PDH/hPDHK2 complex. The test compounds were diluted with DMSO. […] DMSO (1.5 μL) was added to control wells instead of the test compound. […] The mixture was incubated at room temperature for 90 min, and the residual PDH activity was measured. The absorbance at 340 nm before and after PDH reaction was measured using a microplate reader to detect NADH produced by the PDH reaction. The hPDHK2 inhibition rate (%) of the test compound was calculated from the formula [{(PDH activity of test compound−PDH activity of control)/PDH activity of blank−PDH activity of control)}×100].
One may read the IC50 as the concentration at which inhibition is half-maximal. In turn, `C[C@H](O)COc1cc(-c2cnn(CC(C)(C)O)c2)c2c(c1)[C@@](O)(C(F)(F)F)c1ccccc1-2` [compound (1), (9R)-4-[1-(2-hydroxy-2-methylpropyl)-1H-pyrazol-4-yl]-2-((2S)-2-hydroxypropoxy)-9-(trifluoromethyl)-9H-fluoren-9-ol] had an IC50 of 9.2 nM.
To `CC(C)(O)COc1cc(-c2cnn(CC(C)(C)O)c2)c2c(c1)[C@@](O)(C(F)(F)F)c1ccccc1-2` [compound (2), (9R)-2-(2-hydroxy-2-methylpropoxy)-4-[1-(2-hydroxy-2-methylpropyl)-1H-pyrazol-4-yl]-9-(trifluoromethyl)-9H-fluoren-9-ol] belongs 9.7 nM; to `CC(C)(O)CCCOc1cc(-c2cnn(CC(C)(C)O)c2)c2c(c1)[C@@](O)(C(F)(F)F)c1ccccc1-2` [compound (4), (9R)-2-(4-hydroxy-4-methylpentyloxy)-4-[1-(2-hydroxy-2-methylpropyl)-1H-pyrazol-4-yl]-9-(trifluoromethyl)-9H-fluoren-9-ol], 6.6 nM.
